Patent publication US10683269B2 (MISSION THERAPEUTICS LIMITED, priority 2016, dated 2020)

Molecular target: T1, USP7 (Homo sapiens, UniProt Q93009)
T1 construct: The USP7 construct was PCR amplified and cloned into a pFLAG-CMV-6a vector (Sigma-Aldrich) with an N-terminal FLAG tag; made in house; host or cells: HEK293T
Assay: USP7 biochemical IC50 assay (fluorescence polarisation, TAMRA labelled peptide linked to ubiquitin via an iso-peptide bond)
Conditions: 30 min pre-incubation of enzyme and compound, read after 2 hr incubation at room temperature, read-out: IC50 range
Method: In Vitro USP7 Inhibition Assay
Expression and Purification of USP7
The USP7 construct was PCR amplified and cloned into a pFLAG-CMV-6a vector (Sigma-Aldrich) with an N-terminal FLAG tag. HEK293T cells were transfected with FLAG-USP7 using TransIT-LT1 transfection reagent (Mirus) according to the manufacturer's instructions. Cells were harvested 40 hours after transfection. […] The resin was washed two times with low salt buffer plus protease inhibitors (complete mini, Roche) and phosphatase inhibitors (PhosSTOP mini, Roche) and one time with high salt buffer (20 mM Tris, pH 7.5, 500 mM NaCl, 0.5 mM EDTA, 5 mM beta-mercaptoethanol, protease inhibitors (complete mini, Roche) and phosphatase inhibitors (PhosSTOP mini, Roche). To elute the bound USP7, elution buffer (10 mM Tris, pH 7.5, 150 mM NaCl, 0.5 mM EDTA, 10% glycerol, 0.5% NP40, 5 mM beta-mercaptoethanol, 0.15 mg/ml 3×FLAG peptide (Sigma-Aldrich)) was added to the resin and incubated at 4° C. for 2.5 hours rotating. The resin was centrifuged at 4000 rpm for 30 seconds, and the supernatant containing purified FLAG-USP7 was removed and stored at −80° C.
USP7 Biochemical IC50 Assay
A typical 8-point dilution series would be 100, 30, 10, 3, 1, 0.3, 0.1, 0.03 μM final. […] Either 1 μl of 50% DMSO or diluted compound was added to the plate. USP7 was diluted in reaction buffer (20 mM Tris, pH 7.5, 100 mM NaCl, 0.05% Tween 20, 0.5 mg/ml BSA, 5 mM—beta mercaptoethanol) to the equivalent of 0.0025 μl/well and 10 μl of diluted USP7 was added to the compound. Enzyme and compound were incubated for 30 min at room temp. Reactions were initiated by the addition of 50 nM of TAMRA labelled peptide linked to ubiquitin via an iso-peptide bond as fluorescence polarisation substrate. Reactions were read immediately after addition of substrate and following a 2 hr incubation at room temperature. Readings were performed on a Pherastar Plus (BMG Labtech). λ Excitation 540 nm; λ Emission 590 nm.

T1 sequence (Q93009 whole entry): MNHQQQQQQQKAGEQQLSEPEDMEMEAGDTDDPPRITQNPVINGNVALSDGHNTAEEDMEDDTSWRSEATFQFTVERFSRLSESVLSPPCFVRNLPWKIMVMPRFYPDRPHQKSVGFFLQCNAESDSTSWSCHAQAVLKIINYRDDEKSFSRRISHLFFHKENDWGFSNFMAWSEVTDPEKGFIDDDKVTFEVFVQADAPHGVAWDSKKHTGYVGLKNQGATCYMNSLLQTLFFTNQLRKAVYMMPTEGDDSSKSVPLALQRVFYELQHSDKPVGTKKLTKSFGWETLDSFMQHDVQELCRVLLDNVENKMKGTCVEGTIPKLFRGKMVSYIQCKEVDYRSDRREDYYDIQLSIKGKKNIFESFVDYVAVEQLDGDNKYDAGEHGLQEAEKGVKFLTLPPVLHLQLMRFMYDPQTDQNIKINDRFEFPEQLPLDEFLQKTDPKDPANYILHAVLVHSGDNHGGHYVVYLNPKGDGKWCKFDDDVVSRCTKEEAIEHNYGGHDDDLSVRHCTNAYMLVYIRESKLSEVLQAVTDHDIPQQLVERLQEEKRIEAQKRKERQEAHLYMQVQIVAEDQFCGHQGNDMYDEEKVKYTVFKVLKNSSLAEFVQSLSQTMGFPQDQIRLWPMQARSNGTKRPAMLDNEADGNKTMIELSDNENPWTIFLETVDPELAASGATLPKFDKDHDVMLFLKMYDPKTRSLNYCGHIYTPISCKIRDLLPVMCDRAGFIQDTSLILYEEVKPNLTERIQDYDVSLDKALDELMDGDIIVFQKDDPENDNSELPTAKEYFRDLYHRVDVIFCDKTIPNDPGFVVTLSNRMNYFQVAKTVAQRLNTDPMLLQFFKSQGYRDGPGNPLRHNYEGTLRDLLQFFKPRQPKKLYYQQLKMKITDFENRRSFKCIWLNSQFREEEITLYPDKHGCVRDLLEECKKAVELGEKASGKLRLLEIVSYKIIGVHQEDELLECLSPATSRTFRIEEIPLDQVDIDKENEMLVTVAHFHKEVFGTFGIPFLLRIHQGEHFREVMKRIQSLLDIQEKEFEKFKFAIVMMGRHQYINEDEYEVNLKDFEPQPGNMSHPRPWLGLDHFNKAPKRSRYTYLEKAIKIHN

| Compound | IC50 [nM] |
| --- | --- |
| CN1CCCC(C(=O)Nc2cc3c(c(-c4ccccc4)c2)CN(C#N)C3)C1 (racemic) [Example 36, N-(2-cyano-7-phenylisoindolin-5-yl)-1-methylpiperidine-3-carboxamide] | < 1000 |
| CN1CCOC(CNc2nc3c(c(-c4ccccc4)n2)CN(C#N)C3)C1 (single isomer, unassigned) [Example 152, 2-(((4-methylmorpholin-2-yl)methyl)amino)-4-phenyl-5,7-dihydro-6H-pyrrolo[3,4-d]pyrimidine-6-carbonitrile] | 1000 to 10000 |
| CN1CCOC(CNc2nc3c(c(-c4ccccc4)n2)CN(C#N)C3)C1 (single isomer, unassigned) [Example 153, 2-(((4-methylmorpholin-2-yl)methyl)amino)-4-phenyl-5,7-dihydro-6H-pyrrolo[3,4-d]pyrimidine-6-carbonitrile] | < 1000 |
| CC1c2cccc(-c3ccc(Cl)cc3C(N)=O)c2CN1C#N (single isomer, unassigned) [Example 258, 5-chloro-2-(2-cyano-1-methylisoindolin-4-yl)benzamide] | 10000 to 30000 |
| CC1c2cccc(-c3ccc(C#N)cc3C(N)=O)c2CN1C#N (single isomer, unassigned) [Example 259, 5-cyano-2-(2-cyano-1-methylisoindolin-4-yl)benzamide] | 1000 to 10000 |
| N#Cc1ccc(-c2cccc3c2CN(C#N)C3)c(C(N)=O)c1 [Example 1, 5-cyano-2-(2-cyanoisoindolin-4-yl)benzamide] | 1000 to 10000 |
| N#CN1Cc2cccc(-c3ccc(Cl)cc3C(N)=O)c2C1 [Example 2, 5-chloro-2-(2-cyanoisoindolin-4-yl)benzamide] | 1000 to 10000 |
| Cc1ccc(-c2cccc3c2CN(C#N)C3)c(C(N)=O)c1 [Example 3, 2-(2-cyanoisoindolin-4-yl)-5-methylbenzamide] | 1000 to 10000 |
| N#Cc1ccc(-c2cccc3c2CN(C#N)C3)c(C(=O)N2CCC2)c1 [Example 4, 4-(2-(azetidine-1-carbonyl)-4-cyanophenyl)isoindoline-2-carbonitrile] | 1000 to 10000 |
| Cn1cc(Nc2cc3c(c(-c4ccccc4)c2)CN(C#N)C3)cn1 [Example 5, 6-((1-methyl-1H-pyrazol-4-yl)amino)-4-phenylisoindoline-2-carbonitrile] | < 1000 |
| N#CN1Cc2cccc(-c3ccccc3)c2C1 [Example 6, 4-phenylisoindoline-2-carbonitrile] | 1000 to 10000 |
| Cn1cc(-c2cccc3c2CN(C#N)C3)cn1 [Example 7, 4-(1-methyl-1H-pyrazol-4-yl)isoindoline-2-carbonitrile] | 1000 to 10000 |
| N#CN1Cc2cccc(-c3cnc4ccccc4c3)c2C1 [Example 8, 4-(quinolin-3-yl)isoindoline-2-carbonitrile] | 1000 to 10000 |
| N#CN1Cc2cccc(-c3cnc4[nH]ccc4c3)c2C1 [Example 9, 4-(1H-pyrrolo[2,3-b]pyridin-5-yl)isoindoline-2-carbonitrile] | 1000 to 10000 |
| CN1CC=C(c2cccc3c2CN(C#N)C3)CC1 [Example 10, 4-(1-methyl-1,2,3,6-tetrahydropyridin-4-yl)isoindoline-2-carbonitrile] | 1000 to 10000 |
| Cn1cc2cc(-c3cccc4c3CN(C#N)C4)ccc2n1 [Example 11, 4-(2-methyl-2H-indazol-5-yl)isoindoline-2-carbonitrile] | 1000 to 10000 |
| Cc1ccccc1-c1cccc2c1CN(C#N)C2 [Example 12, 4-(o-tolyl)isoindoline-2-carbonitrile] | 1000 to 10000 |
| N#Cc1ccc(-c2cccc3c2CN(C#N)C3)cc1 [Example 13, 4-(4-cyanophenyl)isoindoline-2-carbonitrile] | 1000 to 10000 |
| CN1CCC(c2cccc3c2CN(C#N)C3)CC1 [Example 14, 4-(1-methylpiperidin-4-yl)isoindoline-2-carbonitrile] | 30000 to 100000 |
| N#CN1Cc2nccc(-c3cccc(C(=O)NCc4ccccc4)c3)c2C1 [Example 15, N-benzyl-3-(6-cyano-6,7-dihydro-5H-pyrrolo[3,4-b]pyridin-4-yl)benzamide] | 10000 to 30000 |
| N#CN1Cc2nccc(-c3ccc(Cl)cc3)c2C1 [Example 16, 4-(4-chlorophenyl)-5,7-dihydro-6H-pyrrolo[3,4-b]pyridine-6-carbonitrile] | 1000 to 10000 |

| Compound | IC50 [nM] |
| --- | --- |
| COc1ccc(-c2ccnc3c2CN(C#N)C3)cc1 [Example 17, 4-(4-methoxyphenyl)-5,7-dihydro-6H-pyrrolo[3,4-b]pyridine-6-carbonitrile] | 1000 to 10000 |
| N#CN1Cc2nccc(-c3cccc(Cl)c3)c2C1 [Example 18, 4-(3-chlorophenyl)-5,7-dihydro-6H-pyrrolo[3,4-b]pyridine-6-carbonitrile] | 1000 to 10000 |
| N#CN1Cc2ccnc(-c3ccccc3)c2C1 [Example 19, 4-phenyl-1,3-dihydro-2H-pyrrolo[3,4-c]pyridine-2-carbonitrile] | 1000 to 10000 |
| Cc1nc(-c2cc3c(c(-c4ccccc4)c2)CN(C#N)C3)no1 [Example 20, 6-(5-methyl-1,2,4-oxadiazol-3-yl)-4-phenylisoindoline-2-carbonitrile] | 1000 to 10000 |
| N#CN1Cc2cccc(Nc3ncc4ccccc4n3)c2C1 [Example 21, 4-(quinazolin-2-ylamino)isoindoline-2-carbonitrile] | 1000 to 10000 |
| CNC(=O)c1ccc2cnc(Nc3cccc4c3CN(C#N)C4)cc2c1 [Example 22] | 1000 to 10000 |
| N#CN1Cc2cc(NC(=O)c3cccnc3)cc(-c3ccccc3)c2C1 [Example 23, N-(2-cyano-7-phenylisoindolin-5-yl)nicotinamide] | 30000 to 100000 |
| CC(=O)Nc1cc2c(c(-c3ccccc3C(N)=O)c1)CN(C#N)C2 [Example 24, 2-(6-acetamido-2-cyanoisoindolin-4-yl)benzamide] | 1000 to 10000 |
| CN1CCC[C@@H](C(=O)Nc2cc3c(c(-c4cccc(F)c4)c2)CN(C#N)C3)C1 [Example 25, (R)-N-(2-cyano-7-(3-fluorophenyl)isoindolin-5-yl)-1-methylpiperidine-3-carboxamide] | < 1000 |
| CN1CCC[C@@H](C(=O)Nc2cc3c(c(-c4ccc(C#N)cc4)c2)CN(C#N)C3)C1 [Example 26, (R)-N-(2-cyano-7-(4-cyanophenyl)isoindolin-5-yl)-1-methylpiperidine-3-carboxamide] | < 1000 |
| CN1CCC[C@@H](C(=O)Nc2cc3c(c(-c4cccc(C#N)c4)c2)CN(C#N)C3)C1 [Example 27, (R)-N-(2-cyano-7-(3-cyanophenyl)isoindolin-5-yl)-1-methylpiperidine-3-carboxamide] | < 1000 |
| CN1CCC[C@@H](C(=O)Nc2cc3c(c(-c4ccc(F)cc4)c2)CN(C#N)C3)C1 [Example 28, (R)-N-(2-cyano-7-(4-fluorophenyl)isoindolin-5-yl)-1-methylpiperidine-3-carboxamide] | < 1000 |
| CNC(=O)c1ccc(-c2cc(NC(=O)[C@@H]3CCCN(C)C3)cc3c2CN(C#N)C3)cc1 [Example 29, (R)-N-(2-cyano-7-(4-(methylcarbamoyl)phenyl)isoindolin-5-yl)-1-methylpiperidine-3-carboxamide] | < 1000 |
| CNC(=O)c1cccc(-c2cc(NC(=O)[C@@H]3CCCN(C)C3)cc3c2CN(C#N)C3)c1 [Example 30] | 1000 to 10000 |
| COc1cccc(-c2cc(NC(=O)[C@@H]3CCCN(C)C3)cc3c2CN(C#N)C3)c1 [Example 31, (R)-N-(2-cyano-7-(3-methoxyphenyl)isoindolin-5-yl)-1-methylpiperidine-3-carboxamide] | 1000 to 10000 |
| COc1ccc(-c2cc(NC(=O)[C@@H]3CCCN(C)C3)cc3c2CN(C#N)C3)cc1 [Example 32, (R)-N-(2-cyano-7-(4-methoxyphenyl)isoindolin-5-yl)-1-methylpiperidine-3-carboxamide] | < 1000 |
| CN1CCC[C@@H](C(=O)Nc2cc3c(c(-c4ccc(Cl)cc4)c2)CN(C#N)C3)C1 [Example 33, (R)-N-(7-(4-chlorophenyl)-2-cyanoisoindolin-5-yl)-1-methylpiperidine-3-carboxamide] | < 1000 |
| CN1CCC[C@@H](C(=O)Nc2cc3c(c(-c4cccc(Cl)c4)c2)CN(C#N)C3)C1 [Example 34, (R)-N-(7-(3-chlorophenyl)-2-cyanoisoindolin-5-yl)-1-methylpiperidine-3-carboxamide] | 1000 to 10000 |
| Cc1nc2ccc(-c3cc(NC(=O)[C@@H]4CCCN(C)C4)cc4c3CN(C#N)C4)cc2o1 [Example 35, (R)-N-(2-cyano-7-(2-methylbenzo[d]oxazol-6-yl)isoindolin-5-yl)-1-methylpiperidine-3-carboxamide] | < 1000 |
| CN1CCC[C@H](C(=O)Nc2cc3c(c(-c4ccccc4)c2)CN(C#N)C3)C1 [Example 37, (S)—N-(2-cyano-7-phenylisoindolin-5-yl)-1-methylpiperidine-3-carboxamide] | < 1000 |
